# Assay results from patent publication US5733719A, “Method of making an assay compound” (priority 1995, dated 1998).
# Legend:
# Lymphs = test: Peptidases to distinguish leukemia from non-leukemia, lymphocytes; type: cell-based, human; set-up: unit not given here
# Description: (§1) Artificial intelligence was used to analyze data of cellular enzyme functions, and determine normal and disease states. Peptidases were used to distinguish leukemia from non-leukemia (output pattern). For input patterns lymphocyte and granulocyte cell types were used with aminopeptidases, cathepsins and dipeptidylpeptidase enzyme activities. In this Example, illustrated in Tables 6A-6C, three normals and three leukemia patients were used as known output patterns for the neural network to learn (in practice, the larger the learning set the more accurate unknown prediction will be). Unknowns were then presented to the learned algorithm as shown in the test case examples. Clinical diagnosis was confirmed by physicians. The trained neural network was able to correctly classify the leukemia from the non-leukemia.
# Grans = test: Peptidases to distinguish leukemia from non-leukemia, granulocytes; type: cell-based, human; set-up: unit not given here
# Description: as §1
structure (smiles),measurement,setting,value
"C[C@H](N)C(=O)Nc1ccc2c(c1)Oc1cc(NC(=O)[C@H](C)N)ccc1C21OC(=O)c2ccccc21 [ALA, (Ala)2 Rho 110]",enzyme activity,Lymphs; J4 11/21/91 acute leuk.,86.00
same,enzyme activity,Lymphs; J4 12/2/91 AL,68.10
same,enzyme activity,Lymphs; J4 12/3/91 acute leuk.,74.64
same,enzyme activity,Lymphs; J5 11/27/91 AML,92.44
same,enzyme activity,Lymphs; J19 11/27/91 CLL,47.78
same,enzyme activity,Lymphs; J22 12/2/91 AML,84.42
same,enzyme activity,Lymphs; J22 12/9/91 AML,83.48
same,enzyme activity,Lymphs; N99° normal,91.07
same,enzyme activity,Lymphs; N191 normal,95.72
same,enzyme activity,Lymphs; N192 normal,103.31
same,enzyme activity,Lymphs; N193 normal,100.50
same,enzyme activity,Lymphs; N194 normal,97.02
same,enzyme activity,Lymphs; N195 normal,118.81
same,enzyme activity,Lymphs; N197 normal,96.36
same,enzyme activity,Lymphs; N200 normal,101.38
same,enzyme activity,Lymphs; N201 normal,106.72
same,enzyme activity,Lymphs; N202 normal,118.37
same,enzyme activity,Lymphs; N206 normal,122.71
same,enzyme activity,Lymphs; P68 tachycardia,1471.10
same,enzyme activity,Lymphs; P69 pancreatic CA,130.34
same,enzyme activity,Lymphs; P70 cirrhosis/hemobilia,141.87
same,enzyme activity,Lymphs; P71 ac. pyelonephritis,109.26
same,enzyme activity,Grans; J4 11/21/91 acute leuk.,193.43
same,enzyme activity,Grans; J4 12/2/91 AL,139.53
same,enzyme activity,Grans; J4 12/3/91 acute leuk.,138.89
same,enzyme activity,Grans; J5 11/27/91 AML,194.85
same,enzyme activity,Grans; J19 11/27/91 CLL,143.11
same,enzyme activity,Grans; J22 12/2/91 AML,157.12
same,enzyme activity,Grans; J22 12/9/91 AML,157.48
same,enzyme activity,Grans; N99° normal,157.30
same,enzyme activity,Grans; N191 normal,177.32
same,enzyme activity,Grans; N192 normal,154.84
same,enzyme activity,Grans; N193 normal,178.64
same,enzyme activity,Grans; N194 normal,164.00
same,enzyme activity,Grans; N195 normal,221.28
same,enzyme activity,Grans; N197 normal,188.20
same,enzyme activity,Grans; N200 normal,171.06
same,enzyme activity,Grans; N201 normal,206.06
same,enzyme activity,Grans; N202 normal,201.17
same,enzyme activity,Grans; N206 normal,232.57
same,enzyme activity,Grans; P68 tachycardia,276.07
same,enzyme activity,Grans; P69 pancreatic CA,204.02
same,enzyme activity,Grans; P70 cirrhosis/hemobilia,236.23
same,enzyme activity,Grans; P71 ac. pyelonephritis,185.37
NCC(=O)N1CCC[C@H]1C(=O)Nc1ccc2c(c1)Oc1cc(NC(=O)[C@@H]3CCCN3C(=O)CN)ccc1C21OC(=O)c2ccccc21 [GP],enzyme activity,Lymphs; J4 11/21/91 acute leuk.,2.72
same,enzyme activity,Lymphs; J4 12/2/91 AL,3.80
same,enzyme activity,Lymphs; J4 12/3/91 acute leuk.,4.17
same,enzyme activity,Lymphs; J5 11/27/91 AML,3.40
same,enzyme activity,Lymphs; J19 11/27/91 CLL,1.73
same,enzyme activity,Lymphs; J22 12/2/91 AML,1.73
same,enzyme activity,Lymphs; J22 12/9/91 AML,3.01
same,enzyme activity,Lymphs; N99° normal,5.55
same,enzyme activity,Lymphs; N191 normal,4.14
same,enzyme activity,Lymphs; N192 normal,3.00
same,enzyme activity,Lymphs; N193 normal,3.00
same,enzyme activity,Lymphs; N194 normal,5.22
same,enzyme activity,Lymphs; N195 normal,5.24
same,enzyme activity,Lymphs; N197 normal,5.97
same,enzyme activity,Lymphs; N200 normal,5.38
same,enzyme activity,Lymphs; N201 normal,6.53
same,enzyme activity,Lymphs; N202 normal,6.61
same,enzyme activity,Lymphs; N206 normal,7.09
same,enzyme activity,Lymphs; P68 tachycardia,5.92
same,enzyme activity,Lymphs; P69 pancreatic CA,6.80
same,enzyme activity,Lymphs; P70 cirrhosis/hemobilia,6.68
same,enzyme activity,Lymphs; P71 ac. pyelonephritis,3.55
same,enzyme activity,Grans; J4 11/21/91 acute leuk.,10.75
same,enzyme activity,Grans; J4 12/2/91 AL,11.08
same,enzyme activity,Grans; J4 12/3/91 acute leuk.,1.28
same,enzyme activity,Grans; J5 11/27/91 AML,8.95
same,enzyme activity,Grans; J19 11/27/91 CLL,1.39
same,enzyme activity,Grans; J22 12/2/91 AML,13.98
same,enzyme activity,Grans; J22 12/9/91 AML,11.52
same,enzyme activity,Grans; N99° normal,13.41
same,enzyme activity,Grans; N191 normal,11.20
same,enzyme activity,Grans; N192 normal,11.22
same,enzyme activity,Grans; N193 normal,8.87
same,enzyme activity,Grans; N194 normal,12.49
same,enzyme activity,Grans; N195 normal,13.31
same,enzyme activity,Grans; N197 normal,15.85
same,enzyme activity,Grans; N200 normal,12.74
same,enzyme activity,Grans; N201 normal,15.92
same,enzyme activity,Grans; N202 normal,14.44
same,enzyme activity,Grans; N206 normal,17.96
same,enzyme activity,Grans; P68 tachycardia,16.08
same,enzyme activity,Grans; P69 pancreatic CA,16.21
same,enzyme activity,Grans; P70 cirrhosis/hemobilia,16.42
same,enzyme activity,Grans; P71 ac. pyelonephritis,11.07
CC(C)C[C@H](N)C(=O)NCC(=O)Nc1ccc2c(c1)Oc1cc(NC(=O)CNC(=O)[C@@H](N)CC(C)C)ccc1C21OC(=O)c2ccccc21 [LG],enzyme activity,Lymphs; J4 11/21/91 acute leuk.,0.16
same,enzyme activity,Lymphs; J4 12/2/91 AL,0.18
same,enzyme activity,Lymphs; J4 12/3/91 acute leuk.,0.19
same,enzyme activity,Lymphs; J5 11/27/91 AML,0.23
same,enzyme activity,Lymphs; J19 11/27/91 CLL,0.02
same,enzyme activity,Lymphs; J22 12/2/91 AML,0.02
same,enzyme activity,Lymphs; J22 12/9/91 AML,0.61
same,enzyme activity,Lymphs; N99° normal,0.85
same,enzyme activity,Lymphs; N191 normal,2.42
same,enzyme activity,Lymphs; N192 normal,3.45
same,enzyme activity,Lymphs; N193 normal,1.56
same,enzyme activity,Lymphs; N194 normal,2.06
same,enzyme activity,Lymphs; N195 normal,1.93
same,enzyme activity,Lymphs; N197 normal,1.79
same,enzyme activity,Lymphs; N200 normal,1.55
same,enzyme activity,Lymphs; N201 normal,1.57
same,enzyme activity,Lymphs; N202 normal,1.28
same,enzyme activity,Lymphs; N206 normal,3.12
same,enzyme activity,Lymphs; P68 tachycardia,0.78
same,enzyme activity,Lymphs; P69 pancreatic CA,2.00
same,enzyme activity,Lymphs; P70 cirrhosis/hemobilia,0.79
same,enzyme activity,Lymphs; P71 ac. pyelonephritis,0.68
same,enzyme activity,Grans; J4 11/21/91 acute leuk.,0.85
same,enzyme activity,Grans; J4 12/2/91 AL,0.79
same,enzyme activity,Grans; J4 12/3/91 acute leuk.,1.06
same,enzyme activity,Grans; J5 11/27/91 AML,2.51
same,enzyme activity,Grans; J19 11/27/91 CLL,36.35
same,enzyme activity,Grans; J22 12/2/91 AML,1.56
same,enzyme activity,Grans; J22 12/9/91 AML,1.94
same,enzyme activity,Grans; N99° normal,2.022
same,enzyme activity,Grans; N191 normal,5.37
same,enzyme activity,Grans; N192 normal,6.78
same,enzyme activity,Grans; N193 normal,3.65
same,enzyme activity,Grans; N194 normal,3.52
same,enzyme activity,Grans; N195 normal,4.11
same,enzyme activity,Grans; N197 normal,4.41
same,enzyme activity,Grans; N200 normal,3.40
same,enzyme activity,Grans; N201 normal,3.14
same,enzyme activity,Grans; N202 normal,2.70
same,enzyme activity,Grans; N206 normal,6.01
same,enzyme activity,Grans; P68 tachycardia,2.52
same,enzyme activity,Grans; P69 pancreatic CA,3.53
same,enzyme activity,Grans; P70 cirrhosis/hemobilia,2.20
same,enzyme activity,Grans; P71 ac. pyelonephritis,4.00
"NCCCC[C@H](N)C(=O)Nc1ccc2c(c1)Oc1cc(NC(=O)[C@@H](N)CCCCN)ccc1C21OC(=O)c2ccccc21 [LYS, (H--L--Lys)2 Rho 110-4TFA]",enzyme activity,Lymphs; J4 11/21/91 acute leuk.,0.77
same,enzyme activity,Lymphs; J4 12/2/91 AL,1.81
same,enzyme activity,Lymphs; J4 12/3/91 acute leuk.,1.64
same,enzyme activity,Lymphs; J5 11/27/91 AML,5.71
same,enzyme activity,Lymphs; J19 11/27/91 CLL,0.98
same,enzyme activity,Lymphs; J22 12/2/91 AML,0.74
same,enzyme activity,Lymphs; J22 12/9/91 AML,1.20
same,enzyme activity,Lymphs; N99° normal,0.33
same,enzyme activity,Lymphs; N191 normal,1.18
same,enzyme activity,Lymphs; N192 normal,0.56
same,enzyme activity,Lymphs; N193 normal,0.52
same,enzyme activity,Lymphs; N194 normal,0.93
same,enzyme activity,Lymphs; N195 normal,1.07
same,enzyme activity,Lymphs; N197 normal,0.70
same,enzyme activity,Lymphs; N200 normal,0.90
same,enzyme activity,Lymphs; N201 normal,1.05
same,enzyme activity,Lymphs; N202 normal,0.71
same,enzyme activity,Lymphs; N206 normal,1.65
same,enzyme activity,Lymphs; P68 tachycardia,1.51
same,enzyme activity,Lymphs; P69 pancreatic CA,1.22
same,enzyme activity,Lymphs; P70 cirrhosis/hemobilia,1.02
same,enzyme activity,Lymphs; P71 ac. pyelonephritis,0.91
same,enzyme activity,Grans; J4 11/21/91 acute leuk.,3.01
same,enzyme activity,Grans; J4 12/2/91 AL,4.09
same,enzyme activity,Grans; J4 12/3/91 acute leuk.,3.19
same,enzyme activity,Grans; J5 11/27/91 AML,14.86
same,enzyme activity,Grans; J19 11/27/91 CLL,4.41
same,enzyme activity,Grans; J22 12/2/91 AML,1.41
same,enzyme activity,Grans; J22 12/9/91 AML,1.90
same,enzyme activity,Grans; N99° normal,0.95
same,enzyme activity,Grans; N191 normal,1.20
same,enzyme activity,Grans; N192 normal,1.20
same,enzyme activity,Grans; N193 normal,1.43
same,enzyme activity,Grans; N194 normal,1.56
same,enzyme activity,Grans; N195 normal,2.53
same,enzyme activity,Grans; N197 normal,1.59
same,enzyme activity,Grans; N200 normal,1.46
same,enzyme activity,Grans; N201 normal,2.06
same,enzyme activity,Grans; N202 normal,13.22
same,enzyme activity,Grans; N206 normal,3.11
same,enzyme activity,Grans; P68 tachycardia,3.09
same,enzyme activity,Grans; P69 pancreatic CA,2.14
same,enzyme activity,Grans; P70 cirrhosis/hemobilia,2.33
same,enzyme activity,Grans; P71 ac. pyelonephritis,4.17
